pIC50: −log10 of the molar value.
Key:
tumor = settings: according to the description in clinicaltrials.gov (NCT04053673); cited from earlier work
PARP7 = molecular target: T1, PARP7 (Homo sapiens, UniProt Q7Z3E1); assay: PARP7 TR-FRET assay (binding, displacement of biotinylated Probe A); settings: 6 nM PARP7, 2 nM Probe A, 25° C., 30 min
T1 sequence (Q7Z3E1 1-657): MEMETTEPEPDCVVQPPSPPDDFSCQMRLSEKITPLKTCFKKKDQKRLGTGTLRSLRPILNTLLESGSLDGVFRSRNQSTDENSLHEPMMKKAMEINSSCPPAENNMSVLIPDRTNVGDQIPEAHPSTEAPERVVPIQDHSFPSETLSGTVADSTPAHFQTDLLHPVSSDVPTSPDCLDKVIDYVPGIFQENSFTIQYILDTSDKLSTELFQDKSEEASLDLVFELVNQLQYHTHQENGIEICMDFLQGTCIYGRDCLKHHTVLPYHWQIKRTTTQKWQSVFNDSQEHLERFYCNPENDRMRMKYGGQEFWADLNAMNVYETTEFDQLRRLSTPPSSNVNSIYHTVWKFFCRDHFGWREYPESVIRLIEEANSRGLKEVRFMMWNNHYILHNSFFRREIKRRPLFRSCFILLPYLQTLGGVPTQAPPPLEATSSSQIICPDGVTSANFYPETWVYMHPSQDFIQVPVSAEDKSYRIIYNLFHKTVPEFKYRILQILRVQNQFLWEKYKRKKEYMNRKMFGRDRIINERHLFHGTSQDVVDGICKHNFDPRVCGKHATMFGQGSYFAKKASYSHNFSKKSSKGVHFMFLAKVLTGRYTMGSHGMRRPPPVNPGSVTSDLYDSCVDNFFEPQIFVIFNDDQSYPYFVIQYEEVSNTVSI
Summary of the method: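 Compound displacement of biotinylated Probe A (2 nM) from PARP7 (6 nM) measured by TR-FRET in HEPES pH 8.0 buffer, 30 min at 25° C. Detection used ULight-anti 6xHis (4 nM) plus Eu-streptavidin (0.25 nM) for 30 min, reading the 665/615 nm ratio. % inhibition was taken against DMSO and no-enzyme wells, and IC50 from a Hill fit.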

NCI-H1373 cells = assay: Inhibition of cancer cell growth in NCI-H1373 cells (Cell-titer Glo, 6 days); assay type: cell-based; settings: Homo sapiens, NCI-H1373, 144 h, read-out: H1373 Cell Proliferation IC50
Protocol: Biological Assay Example B: Inhibition of cancer cell growth in NCI-H1373 cells by PARP7 inhibitors
NCI-H1373 cells were cultured in RPMI 1640 medium supplemented with 10% fetal bovine serum, 100 U/mL penicillin and 100 ug/mL streptomycin in a 37° C., 5% CO2 incubator. Fifteen hundred cells were seeded into each well of 96-well plate in RPMI1640 medium containing 10% fetal bovine serum and incubated overnight. Serial diluted compounds for each well were added at a final DMSO concentration of 0.5% and a day zero plate was collected for analysis. Compounds were incubated with the cells for 6 days. Cell growth was assessed using Cell-titer Glo reagent (Promega #G^7572). The luminescence signal was collected on Tecan Spark plate reader. Cell growth is determined by correcting for the cell count on day zero. Inhibition rate is calculated with the formula of % inhibition=100*(DMSO control-compounds)/(DMSO control-Blank). Cell growth inhibition IC50 is calculated with the equation of Y-Bottom+ (Top-Bottom)/(1+10^((LogIC50−X) *Hill Slope)).

Row | Compound | tumor growth in animal studies (tumor) | pIC50 (PARP7) | pIC50 (NCI-H1373 cells)
1 | C[C@@H](COCCC(=O)N1CCN(c2ncc(C(F)(F)F)cn2)CC1)Nc1cn[nH]c(=O)c1C(F)(F)F [RBN2397] | inhibit tumor growth |  | 
2 | Cc1ccc2c(=O)[nH]nc(N3CCOC(CC(=O)N4CCN(c5ncc(C(F)(F)F)cn5)CC4)C3)c2c1 (single isomer, unassigned) [Compound 123] |  | > 7.00 | < 6.00
3 | COC[C@@H]1C[C@@H](OCC(=O)N2CCN(c3ncc(C(F)(F)F)cn3)CC2)c2n[nH]c(=O)c(C(F)(F)F)c2O1 [Compound 57] |  | > 7.00 | > 7.00
